Reference: patent US8168197B2, “External composition for skin containing Scrophularia buergeriana miq. extract and the use thereof for the skin moisturizing cosmetics” (Amorepacific Corporation, priority 2007, dated 2012)

Tested on: human skin
Assay: Production of epidermal lipid (total ceramide) on human skin
Type: in vivo
Details: 5% test material, 20 μl on human forearm
Procedure: In order to evaluate the effects of the Scrophularia buergeriana Miq. and Poria cocos Wolf extracts on an increase in the synthesis of lipid on the human skin, the following test was carried out. The composition of the test material consisted of 0.5% of Carbopol ETD 2020, 0.45% of TEA 0.45%, 5% test material and the balance of deionized water. On the forearm of each of 12 adult men and women, a region having a size corresponding to the size of a 50-ml polypropylene conical tube was marked, and then 20 μl of each of control groups, the Scrophularia buergeriana Miq. extract and the Scrophularia buergeriana Miq. extract/Poria cocos Wolf extract mixture was applied on the subjects. Herein, the subjects were divided into two groups, lipids were extracted from the subjects at day 3 and day 11 in the following manner, and the extracted lipid were analyzed. Specifically, the forearm was washed with service water, and then subjected to tape stripping one time with Scotch® 810 Magic tape. Then, 1 ml of a mixture of cyclohexane/ethanol (4:1) was added to the forearm using a 50-ml cut polypropylene conical tube as a reservoir and shaken for about 1 minute, and was then transferred into a fresh tube. […]
After the TLC plate was developed, the size of each band was measured at a wavelength of 570 nm using a TLC Scanner-II densitometer (CAMAG). […]

OCC(O)CO [Glycerin]
production of ceramide relative to the untreated group taken as 100%, 3 days after treatment (3 days after treatment): 102%
production of ceramide relative to the untreated group taken as 100%, 11 days after treatment (11 days after treatment): 94%
